Data reported in patent US7030110B2, “Cyclic oxyguanidine pyrazinones as protease inhibitors” (Ortho-McNeil Pharmaceuticals, Inc., priority 2000, dated 2006).
Structures can show the parent of a compound that is named as a salt.

Molecular target: T1, human α-thrombin (Homo sapiens, UniProt P00734)
T1 construct: Human α-thrombin, human factor Xa and human plasmin were obtained from Enzyme Research Laboratories; purchased Enzyme Research Laboratories (South Bend, Indiana)
Test: In vitro inhibition of purified thrombin, Ki determination (p-nitroanilide substrate hydrolysis)
Format: biochemical
Conditions: purified human α-thrombin 0.5 nM; substrate N-succinyl-Ala-Ala-Pro-Arg-p-nitroanilide; 50 mM HEPES, 200 mM NaCl, pH 7.5; 37° C.
Text: Reagents: All buffer salts were obtained from Sigma Chemical Company (St. Louis, Mo.), and were of the highest purity available. The enzyme substrates, N-benzoyl-Phe-Val-Arg-p-nitroanilide (Sigma B7632), N-benzoyl-Ile-Glu-Gly-Arg-p-nitroanilide hydrochloride (Sigma B2291), N-p-Tosyl-Gly-Pro-Lys-p-nitroanilide (Sigma T6140), N-succinyl-Ala-Ala-Pro-Phe-p-nitroanilide (Sigma S7388) and N-CBZ-Val-Gly-Arg-p-nitroanilide (Sigma C7271) were obtained from Sigma. N-succinyl-Ala-Ala-Pro-Arg-p-nitroanilide (BACHEM L-1720) and N-succinyl-Ala-Ala-Pro-Val-p-nitroanilide (BACHEM L-1770) were obtained from BACHEM (King of Prussia, Pa.). […]
Ki Determinations: All assays are based on the ability of the test compound to inhibit the enzyme catalyzed hydrolysis of a peptide p-nitroanilide substrate. […] In general, substrate concentrations are lower than the experimentally determined value for Km. […]
In a typical K1 determination, into each well of a 96 well plate is pipetted […] of substrate solution, […] of test compound solution, and the plate allowed to thermally equilibrate at 37° C. in a Molecular Devices plate reader for >15 minutes. Reactions were initiated by the addition of a […] aliquot of enzyme and the absorbance increase at 405 nm is recorded for 15 minutes. […] The data are fit to a linear regression, and the value of the slope of the line calculated. […]

Ki [nM]	SMILES
5	Cc1cnc(NCC(F)(F)c2ccccc2)c(=O)n1CC(=O)NCC1CNC(=N)NO1 (centres unmarked) [Example 2, 2-[3-(2,2-Difluoro-2-phenylethylamino)-6-methyl-2-oxo-2H-pyrazin-1-yl]-N-(3-imino-[1,2,4]oxadiazinan-6-ylmethyl)-acetamide Trifluoroacetate]
0.6 to 1.3	Cc1ccc(CCNc2ncc(C)n(CC(=O)NC3CCN(C(=N)N)OC3)c2=O)cc1 (centres unmarked) [Example 1, N-(2-Carbamimidoyl-[1,2]oxazinan-5-yl)-2-[6-methyl-2-oxo-3-(2-p-tolylethylamino)-2H-pyrazin-1-yl]-acetamide trifluoroacetate]
